Read-outs that look alike come from different tables or passages of the source.
Legend:
human EP2 receptors = target: T1, human EP2 receptors (Homo sapiens, UniProt P43116); assay: Competition radioligand binding ([3H]PGE2), EP2; settings: read-out: BINDING IC50 HEP2
T1 construct: expressed in transfected cells; host or cells: HEK 293

hTP = target: T2, hTP (Homo sapiens, UniProt P21731); assay: FLIPR calcium signal, hTP; format: cell-based
T2 construct: expressed in transfected cells; host or cells: HEK-293(EBNA)
T2 sequence (P21731 1-343): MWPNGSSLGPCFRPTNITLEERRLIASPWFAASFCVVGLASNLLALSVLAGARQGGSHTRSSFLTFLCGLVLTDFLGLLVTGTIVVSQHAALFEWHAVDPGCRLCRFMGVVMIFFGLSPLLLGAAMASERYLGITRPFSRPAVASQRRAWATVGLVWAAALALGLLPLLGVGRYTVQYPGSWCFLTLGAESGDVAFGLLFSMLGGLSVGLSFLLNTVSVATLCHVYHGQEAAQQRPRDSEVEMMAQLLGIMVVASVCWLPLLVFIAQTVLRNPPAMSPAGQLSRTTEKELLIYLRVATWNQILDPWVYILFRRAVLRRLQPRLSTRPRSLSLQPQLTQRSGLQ
Experimental: (§1) HEK-293(EBNA) cells, stably expressing one type or subtype of recombinant human prostaglandin receptors (prostaglandin receptors expressed: hDP/Gqs5; hEP1; hEP2/Gqs5; hEP3A/Gqi5; hEP4/Gqs5; hFP; hIP; hTP), were cultured in 100 mm culture dishes in high-glucose DMEM medium containing 10% fetal bovine serum, 2 mM 1-glutamine, 250 μg/ml geneticin (G418) and 200 μg/ml hygromycin B as selection markers, and 100 units/ml penicillin G, 100 μg/ml streptomycin and 0.25 μg/ml amphotericin B. • (b) Calcium Signal Studies on the FLIPR™
(§2) Cells were seeded at a density of 5×10^4 cells per well in Biocoat® Poly-D-lysine-coated black-wall, clear-bottom 96-well plates (Becton-Dickinson) and allowed to attach overnight in an incubator at 37° C. Cells were then washed two times with HBSS-HEPES buffer (Hanks Balanced Salt Solution without bicarbonate and phenol red, 20 mM HEPES, pH 7.4) using a Denley Cellwash plate washer (Labsystems). After 45 minutes of dye-loading in the dark, using the calcium-sensitive dye Fluo-4 AM at a final concentration of 2 μM, plates were washed four times with HBSS-HEPES buffer to remove excess dye leaving 100 μl in each well. Plates were re-equilibrated to 37° C. for a few minutes.
(§3) Cells were excited with an Argon laser at 488 nm, and emission was measured through a 510-570 nm bandwidth emission filter (FLIPR™, Molecular Devices, Sunnyvale, Calif.). Drug solution was added in a 50 μl volume to each well to give the desired final concentration. The peak increase in fluorescence intensity was recorded for each well. On each plate, four wells each served as negative (HBSS-HEPES buffer) and positive controls (standard agonists: BW245C (hDP); PGE2 (hEP1; hEP2/Gqs5; hEP3A/Gqi5; hEP4/Gqs5); PGF2α (hFP); carbacyclin (hIP); U-46619 (hTP), depending on receptor). The peak fluorescence change in each drug-containing well was then expressed relative to the controls.
(§4) Compounds were tested in a high-throughput (HTS) or concentration-response (CoRe) format. In the HTS format, forty-four compounds per plate were examined in duplicates at a concentration of 10^−5 M. To generate concentration-response curves, four compounds per plate were tested in duplicates in a concentration range between 10^−5 and 10^−11 M. The duplicate values were averaged. In either, HTS or CoRe format each compound was tested on at least 3 separate plates using cells from different passages to give an n≧3.

hEP2/Gqs5 = target: T3, hEP2/Gqs5 (Homo sapiens, UniProt P43116); assay: FLIPR calcium signal, hEP2; format: cell-based
T3 construct: expressed in transfected cells; host or cells: HEK-293(EBNA)
T3 sequence (P43116 whole entry): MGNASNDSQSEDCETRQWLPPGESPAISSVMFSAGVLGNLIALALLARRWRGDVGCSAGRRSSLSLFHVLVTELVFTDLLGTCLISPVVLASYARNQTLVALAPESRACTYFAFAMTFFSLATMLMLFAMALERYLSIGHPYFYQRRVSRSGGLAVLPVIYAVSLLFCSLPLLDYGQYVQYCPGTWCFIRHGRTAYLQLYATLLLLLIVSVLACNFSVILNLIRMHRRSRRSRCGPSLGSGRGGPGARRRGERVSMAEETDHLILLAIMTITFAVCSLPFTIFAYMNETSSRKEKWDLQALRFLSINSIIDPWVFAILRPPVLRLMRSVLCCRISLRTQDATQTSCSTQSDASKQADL
Summary of the method: (§5)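 HEK-293(EBNA) cells stably expressing the recombinant human receptor were loaded with 2 μM Fluo-4 AM for 45 min and read on FLIPR at 37° C in HBSS-HEPES pH 7.4. Peak fluorescence rise was expressed relative to buffer and standard agonist controls (BW245C, PGE2 or U-46619 by receptor); compounds were run 10^−5 to 10^−11 M in duplicate, n≧3.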

hEP4/Gqs5 = target: T4, hEP4/Gqs5 (Homo sapiens, UniProt P35408); assay: FLIPR calcium signal, hEP4; format: cell-based; settings: FLIPR Ca2+ signal, HEK-293(EBNA); read-out: FUNCTIONAL EC50 HEP4
T4 construct: expressed in transfected cells; host or cells: HEK-293(EBNA)
T4 sequence (P35408 whole entry): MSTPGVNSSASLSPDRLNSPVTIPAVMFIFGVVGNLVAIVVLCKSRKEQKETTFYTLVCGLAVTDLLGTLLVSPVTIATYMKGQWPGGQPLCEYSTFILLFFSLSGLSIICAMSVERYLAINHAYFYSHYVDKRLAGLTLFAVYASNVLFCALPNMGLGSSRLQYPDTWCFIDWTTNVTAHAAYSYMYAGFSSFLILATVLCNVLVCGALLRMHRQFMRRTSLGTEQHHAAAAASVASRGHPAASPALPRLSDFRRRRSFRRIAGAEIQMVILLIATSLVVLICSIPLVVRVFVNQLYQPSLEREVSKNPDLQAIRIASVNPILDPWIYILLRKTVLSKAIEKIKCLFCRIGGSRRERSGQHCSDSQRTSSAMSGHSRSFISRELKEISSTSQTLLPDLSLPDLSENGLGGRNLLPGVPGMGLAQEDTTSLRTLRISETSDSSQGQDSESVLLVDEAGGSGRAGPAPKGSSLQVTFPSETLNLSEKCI
Summary of the method: as §5

EP4 receptors = target: T5, EP4 receptors (Homo sapiens, UniProt P35408); assay: Radioligand binding ([3H]PGE2), EP4; settings: read-out: BINDING IC50 HEP4
T5 construct: expressed in transfected cells; host or cells: HEK-293
T5 sequence (P35408 whole entry): as above
Experimental: HEK-293 cells stably expressing the human or feline FP receptor, or EP1, EP2, or EP4 receptors were washed with TME buffer, scraped from the bottom of the flasks, and homogenized for 30 sec using a Brinkman PT 10/35 polytron. TME buffer was added to achieve a final 40 ml volume in the centrifuge tubes (the composition of TME is 100 mM TRIS base, 20 mM MgCl2, […]; 10N HCl is added to achieve a pH of 7.4).
The cell homogenate was centrifuged at 19000 r.p.m. for 20 min at 4° C. using a Beckman Ti-60 rotor. The resultant pellet was resuspended in TME buffer to give a final 1 mg/ml protein concentration, as determined by Biorad assay. Radioligand binding competition assays vs. [^3H-]17 —phenyl PGF2α (5 nM) were performed in a 100 μl volume for 60 min. Binding reactions were started by adding plasma membrane fraction. The reaction was terminated by the addition of 4 ml ice-cold TRIS-HCl buffer and rapid filtration through glass fiber GF/B filters using a Brandel cell harvester. The filters were washed 3 times with ice-cold buffer and oven dried for one hour.
[^3H-] PGE2 (specific activity 180 Ci mmol) was used as the radioligand for EP receptors. [^3H] 17-phenyl PGF2α was employed for FP receptor binding studies. Binding studies employing EP1, EP2, EP4 and FP receptors were performed in duplicate in at least three separate experiments. A 200 μl assay volume was used. Incubations were for 60 min at 25° C. and were terminated by the addition of 4 ml of ice-cold 50 mM TRIS-HCl, followed by rapid filtration through Whatman GF/B filters and three additional 4 ml washes in a cell harvester (Brandel). Competition studies were performed using a final concentration of 5 nM [^3H]—PGE2, or 5 nM [^3H] 17-phenyl PGF2α and non-specific binding determined with 10^−5M of unlabeled PGE2, or 17-phenyl PGF2α, according to receptor subtype studied.

hEP1 = target: T6, hEP1 (Homo sapiens, UniProt P34995); assay: FLIPR calcium signal, hEP1; format: cell-based; settings: FLIPR Ca2+ signal, HEK-293(EBNA); read-out: FUNCTIONAL EC50 HEP1
T6 construct: expressed in transfected cells; host or cells: HEK-293(EBNA)
T6 sequence (P34995 1-402): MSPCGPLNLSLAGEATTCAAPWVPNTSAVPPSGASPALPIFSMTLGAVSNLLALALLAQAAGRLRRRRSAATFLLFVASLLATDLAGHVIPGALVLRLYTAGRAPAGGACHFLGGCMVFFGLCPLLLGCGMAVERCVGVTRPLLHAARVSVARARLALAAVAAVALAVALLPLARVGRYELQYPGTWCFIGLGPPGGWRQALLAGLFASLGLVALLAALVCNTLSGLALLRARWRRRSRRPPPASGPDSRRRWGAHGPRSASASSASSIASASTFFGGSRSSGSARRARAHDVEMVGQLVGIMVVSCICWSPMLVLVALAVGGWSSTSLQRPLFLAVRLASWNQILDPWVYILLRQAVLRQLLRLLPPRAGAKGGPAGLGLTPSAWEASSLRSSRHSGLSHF
Experimental: as §1, §2, §3, §4

hIP = target: T7, hIP (Homo sapiens, UniProt P43119); assay: FLIPR calcium signal, hIP; format: cell-based; settings: FLIPR Ca2+ signal, HEK-293(EBNA); read-out: FUNCTIONAL EC50 HIP
T7 construct: expressed in transfected cells; host or cells: HEK-293(EBNA)
T7 sequence (P43119 whole entry): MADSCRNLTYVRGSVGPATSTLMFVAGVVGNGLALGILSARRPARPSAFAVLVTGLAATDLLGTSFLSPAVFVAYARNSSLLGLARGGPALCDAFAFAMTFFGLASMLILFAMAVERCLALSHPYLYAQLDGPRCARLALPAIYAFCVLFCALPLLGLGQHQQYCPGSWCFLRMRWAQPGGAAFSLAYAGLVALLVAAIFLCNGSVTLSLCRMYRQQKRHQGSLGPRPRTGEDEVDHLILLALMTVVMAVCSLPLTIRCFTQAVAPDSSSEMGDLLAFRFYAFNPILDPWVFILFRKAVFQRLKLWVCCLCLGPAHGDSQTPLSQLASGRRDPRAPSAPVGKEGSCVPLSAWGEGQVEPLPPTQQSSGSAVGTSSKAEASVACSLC
Experimental: as §1, §2, §3, §4

hEP3A/Gqi5 = target: T8, hEP3A/Gqi5 (Homo sapiens, UniProt P43115); assay: FLIPR calcium signal, hEP3A; format: cell-based; settings: FLIPR Ca2+ signal, HEK-293(EBNA); read-out: FUNCTIONAL EC50 HEP3A
T8 construct: expressed in transfected cells; host or cells: HEK-293(EBNA)
T8 sequence (P43115 1-390): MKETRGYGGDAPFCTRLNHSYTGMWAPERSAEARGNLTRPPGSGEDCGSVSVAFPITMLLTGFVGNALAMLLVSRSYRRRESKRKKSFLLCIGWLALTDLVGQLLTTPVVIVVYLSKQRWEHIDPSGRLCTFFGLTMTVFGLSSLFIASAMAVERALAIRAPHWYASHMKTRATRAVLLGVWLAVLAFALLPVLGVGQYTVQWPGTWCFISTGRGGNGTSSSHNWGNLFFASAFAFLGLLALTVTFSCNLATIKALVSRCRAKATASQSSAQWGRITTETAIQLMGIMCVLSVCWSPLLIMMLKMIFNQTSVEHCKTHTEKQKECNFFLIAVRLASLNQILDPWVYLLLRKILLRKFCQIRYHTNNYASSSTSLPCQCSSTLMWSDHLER
Experimental: as §1, §2, §3, §4

hDP/Gqs5 = target: T9, hDP/Gqs5 (Homo sapiens, UniProt Q13258); assay: FLIPR calcium signal, hDP; format: cell-based; settings: FLIPR Ca2+ signal, HEK-293(EBNA); read-out: FUNCTIONAL EC50 HDP
T9 construct: expressed in transfected cells; host or cells: HEK-293(EBNA)
T9 sequence (Q13258 1-359): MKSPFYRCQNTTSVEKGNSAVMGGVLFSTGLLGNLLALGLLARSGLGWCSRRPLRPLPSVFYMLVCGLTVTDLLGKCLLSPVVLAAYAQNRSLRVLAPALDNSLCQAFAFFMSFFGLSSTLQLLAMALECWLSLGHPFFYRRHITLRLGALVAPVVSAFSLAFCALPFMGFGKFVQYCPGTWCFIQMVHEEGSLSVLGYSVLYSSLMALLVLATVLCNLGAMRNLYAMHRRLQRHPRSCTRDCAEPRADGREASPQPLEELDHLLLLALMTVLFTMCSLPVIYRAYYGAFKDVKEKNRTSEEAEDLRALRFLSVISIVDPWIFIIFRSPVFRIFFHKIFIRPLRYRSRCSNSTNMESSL
Experimental: as §1, §2, §3, §4

[1] = FLIPR Ca2+ signal, HEK-293(EBNA), read-out: FUNCTIONAL EC50 HTP
[2] = FLIPR Ca2+ signal, HEK-293(EBNA), read-out: FUNCTIONAL EC50 HEP2

T1 sequence (P43116 whole entry): as the sequence (P43116 whole entry) above

Q: With `O=C(O)CCCCCC[C@@H]1[C@@H](c2ccc3c(c2)CCC3O)[C@H](O)C[C@H]1Cl` (some centres unmarked) as the molecule, how does the IC50 (human EP2 receptors) read?
A: 13.1 µM

Q: What about the EC50 (hTP; [1]) of the same molecule?
A: 2.99 µM

Q: What about the EC50 (hEP2/Gqs5; [2]) of the same molecule?
A: 0.529 µM

Q: With `COC(=O)CCCCCC[C@@H]1[C@@H](c2ccc3c(c2)CCC3O)[C@H](O)C[C@H]1Cl` (some centres unmarked) as the molecule, how does the EC50 (hEP4/Gqs5) read?
A: 22.5 µM

Q: What about the EC50 (hTP; [1]) of the same molecule?
A: 17.5 µM

Q: For `COC(=O)CCCCCC[C@@H]1[C@@H](c2ccc3c(c2)CCC3)[C@H](O)C[C@H]1Cl`, which IC50 (EP4 receptors) is on record?
A: 13.1 µM

Q: And the EC50 (hTP; [1])?
A: 0.506 µM

Q: What does the source list for `O=C(O)CCCCCC[C@@H]1[C@@H](c2ccc3c(c2)CCC3)[C@H](O)C[C@H]1Cl`?
A: IC50 (human EP2 receptors): 6.25 µM; EC50 (hTP; [1]): 0.2 µM; EC50 (hEP1): 0.221 µM; EC50 (hEP2/Gqs5; [2]): 0.818 µM

Q: For `O=C(O)CCCCCC[C@H]1C(=O)C[C@@H](O)[C@@H]1c1ccc(C2(O)CCC2)cc1`, which EC50 (hIP) is on record?
A: > 10 µM

Q: What about the EC50 (hEP2/Gqs5; [2]) of the same molecule?
A: > 10 µM

Q: How did the EC50 (hTP; [1]) turn out when `Cc1ccc([C@H]2[C@H](O)CC(=O)[C@@H]2CCCCCCC(=O)O)cc1` was run?
A: 0.094 µM

Q: What about the EC50 (hEP1) of the same molecule?
A: 1.87 µM

Q: What about the EC50 (hEP2/Gqs5; [2]) of the same molecule?
A: 3.13 µM

Q: `O=C(O)CCCCCC[C@H]1C(=O)CC[C@@H]1c1ccc(C(O)C2CCCCC2)cc1` (some centres unmarked) was tested. Which EC50 (hTP; read-out: FUNCTIONAL Ca2+ EC50 HTP) did it give?
A: > 10 µM

Q: And the EC50 (hEP2/Gqs5; read-out: FUNCTIONAL Ca2+ EC50 HEP2)?
A: > 10 µM

Q: With `CC(C)(C)c1ccc([C@@H]2[C@@H](CCCCCCC(=O)O)[C@H](Cl)C[C@H]2O)cc1` [drawing 70] as the molecule, how does the EC50 (hEP3A/Gqi5) read?
A: > 10 µM

Q: And the EC50 (hDP/Gqs5)?
A: > 10 µM

Q: What about the EC50 (hTP; [1]) of the same molecule?
A: > 10 µM

Q: What about the EC50 (hEP1) of the same molecule?
A: > 10 µM

Q: And the EC50 (hEP2/Gqs5; [2])?
A: 0.264 µM
